Measured values: US7485759B2, “Minimization of ligand degradation products, or reversion of same to useful phosphine ligands” (Dow Technology Investments LLC, priority 2003, dated 2009)

What was measured:
[1] = Continuous hydroformylation mini-plant with soy methyl esters; formation rate of phosphonium degradation products (Examples 6-8, Comparative Experiment 6); assay type: physicochemical
Protocol: The formation rate of phosphonium degradation products was measured in a continuous hydroformylation mini-plant, which consisted of a reaction system comprised of three reactors in series and a product/catalyst separation system with catalyst recycle. The reactors were charged with a catalyst solution containing Ligand A (2.5 wt %) shown in Example 5 hereinabove, Rh(CO)2acac (500 ppm Rh), and 20 wt % 1-methyl-2-pyrrolidone (NMP). A mixture of soy methyl esters was fed continuously to the first reactor. The reactors were operated at 600 psig (4,137 kPa) pressure by continuously feeding a gaseous mixture of carbon monoxide and hydrogen (CO:H2=1:1 vol/vol). The reaction was conducted for 153 hours continuously at 85° C. The formation rate of phosphonium degradation products was measured to be 0.02 g/liter/day during this period. The pressure of carbon monoxide and hydrogen (CO:H2=1:1 vol/vol) was then reduced to 400 psig (2,758 kPa) while keeping the temperature and other conditions unchanged. The reaction was conducted for 59 hours, and the formation rate of phosphonium degradation products was measured to be 0.03 g/liter/day during this period. The results illustrate a low rate of phosphonium formation at a pressure greater than 300 psig, and further that phosphonium formation decreases with increasing pressure.
The formation rate of phosphonium degradation products was measured in a continuous hydroformylation mini-plant similar to the system described in Example 6. The reaction system was charged with a catalyst solution containing Ligand A (2.5 wt %) as shown in Example 5 hereinabove, Rh(CO)2acac (500 ppm Rh), and 20 wt % 1-methyl-2-pyrrolidone (NMP). Soy methyl esters were fed continuously to the reaction system. The reactors were operated at 400 psig (2,758 kPa) pressure by continuously feeding a gaseous mixture of carbon monoxide and hydrogen (CO:H2=1:1 vol/vol). The reaction was conducted continuously for 59 hours with all reactors at 85° C. The formation rate of phosphonium degradation products was measured to be 0.03 g/liter/day during this period.
For comparative purposes, Example 7 was repeated with the exception that the temperature of the last reactor was increased to 100° C. while keeping the temperature of all other reactors at 85° C. All other conditions remained unchanged. The reaction was conducted for 140 hours and the formation rate of phosphonium degradation products was measured to be 0.07 g/liter/day during this period.
The formation rate of phosphonium degradation products was measured in a continuous hydroformylation mini-plant similar to the one described in Example 6. The reaction system was charged with a catalyst solution containing Ligand A (2 wt %), Rh(CO)2acac (300 ppm Rh), and 30 wt % 1-methyl-2-pyrrolidone (NMP). Soy methyl esters, were fed continuously to the reaction system. The reactors were operated at 300 psig (2,068 kPa) pressure by continuously feeding a gaseous mixture of carbon monoxide and hydrogen (CO:H2=1:1 vol/vol). The reaction was conducted continuously for 150 hours at 95° C. The formation rate of phosphonium degradation products were measured to be 0.05 g/liter/day during this period. The pressure of the reaction system was increased to 600 psig (4136 kPa), and the temperature of the reaction system was decreased to 85° C., while keeping all other conditions unchanged. The reaction was conducted for 350 hours and the formation rate of phosphonium degradation products was measured to be 0.02 g/liter/day during this period.

[2] = Batch hydroformylation of soy oil methyl esters; average rate of phosphonium ligand degradation product formation by 31P NMR (Comparative Experiment 5, Example 5); assay type: physicochemical; conditions: 30 psig, reaction time 4 days
Protocol: The hydroformylation of soy oil methyl esters was conducted at 100° C. for comparative purposes to illustrate the effect of temperature on the formation of ligand degradation products. Under a nitrogen atmosphere, a hydroformylation catalyst solution was prepared containing Ligand A (2.208 g, 5.866 mmol, initial ligand concentration in the reactor: 0.10M), Rh(CO)2acac (0.0366 g, 0.142 mmol), and 1-methyl-2-pyrrolidone (NMP, 16.05 g). Ligand A, the mono-sulfonated sodium salt of bis(dicyclohexyl)phenylphosphine, has the following structure.
Also prepared under nitrogen was a neat solution of soybean oil-derived methyl esters (33.95 g, 115.08 mmol), prepared by the transesterification of soybean oil with methanol using standard methods known in the art. Soybean oil contains polyunsaturated esters. Under nitrogen, the catalyst solution was added into a 100 mL stainless steel reactor, and the soy methyl esters were added into a substrate delivery cylinder attached to the reactor. […] The average rate of phosphonium ligand degradation product formation was determined using the NMR data.
The hydroformylation of soy oil methyl esters was conducted at 85° C. as an example of the invention to illustrate the effect of temperature on the formation of ligand degradation products. […] The average rate of phosphonium ligand degradation product formation was determined using the NMR data.

O=S(=O)([O-])c1cccc(P(C2CCCCC2)C2CCCCC2)c1.[Na+] [Ligand A, mono-sulfonated sodium salt of bis(dicyclohexyl)phenylphosphine]
formation rate of phosphonium degradation products ([1]; Comparative Experiment 6, 400 psig, last reactor 100° C., other reactors 85° C., 140 hours): 0.07 g/L/day | formation rate of phosphonium degradation products ([1]; Example 6, 400 psig, 85° C., 59 hours, Ligand A 2.5 wt %): 0.03 g/L/day | formation rate of phosphonium degradation products ([1]; Example 6, 600 psig, 85° C., 153 hours, Ligand A 2.5 wt %): 0.02 g/L/day | formation rate of phosphonium degradation products ([1]; Example 7, 400 psig, all reactors at 85° C., 59 hours, Ligand A 2.5 wt %): 0.03 g/L/day | formation rate of phosphonium degradation products ([1]; Example 8, 300 psig, 95° C., 150 hours, Ligand A 2 wt %): 0.05 g/L/day | formation rate of phosphonium degradation products ([1]; Example 8, 600 psig, 85° C., 350 hours, Ligand A 2 wt %): 0.02 g/L/day | Phosphonium formation rate Average ([2]; 85° C., initial ligand concentration 0.14 M): 0.04 g/L/day | Phosphonium formation rate (Average g/L/day) ([2]; 100° C., initial ligand concentration 0.10M): 0.1 g/L/day
